This note sets out measurements from patent US9242984B2, “Pyrazolyl derivatives as Syk inhibitors” (Merck Sharp & Dohme Corp., priority 2012, dated 2016).

Some results are limits rather than exact numbers.

The assay has as its target T1, recombinant human Syk (GST-hSyk fusion protein) (Homo sapiens, UniProt P43405).
T1 construct: purchased Carna Biosciences 08-176
Briefly: Homogeneous Time-Resolved Fluorescence (HTRF) assay for the recombinant human Syk enzyme. The format is biochemical. The following applies: IC50 class; 10-dose titration, 25 μM ATP; read-out: rhSYK Activity. In a few lines: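 IC50 came from a four-parameter fit over ten doses, 10 μM to 0.508 nM, with HTRF read-out (Eu-anti-pTyr antibody, SA-APC, EDTA stop, 30 min). The enzyme, 5 pM GST-hSyk, met compound for 10 min, then phosphorylated 250 nM biotin-peptide with 25 μM ATP and 5 mM Mg for 45 min at room temperature, pH 7.5.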
(In general: Time-resolved FRET reads energy transfer from a long-lived donor to a nearby acceptor.)

For the compound `COc1nc(Nc2cc(C)cc(-c3cnn(CC4CNC(=O)O4)c3)c2)ncc1F` (stereo not shown) [Example 2.25, 5-[(4-{3-[(5-fluoro-4-methoxypyrimidin-2-yl)amino]-5-methylphenyl}-1H-pyrazol-1-yl)methyl]-1,3-oxazolidin-2-one], the IC50 is at most 100 nM. Take `Cc1cc(Nc2ncc(Cl)c(C)n2)cc(-c2cnn(CC3CNC(=O)O3)c2)c1` (stereo not shown) [Example 2.26, 5-[(4-{3-[(5-chloro-4-methylpyrimidin-2-yl)amino]-5-methylphenyl}-1H-pyrazol-1-yl)methyl]-1,3-oxazolidin-2-one]: the IC50 was at most 100 nM. The value for `O=C1NCC(Cn2cc(-c3cccc(Nc4nccc(C(F)(F)F)n4)c3)cn2)O1` (stereo not shown) [Example 2.27, 5-{[4-(3-{[4-(trifluoromethyl)pyrimidin-2-yl]amino}phenyl)-1H-pyrazol-1-yl]methyl}-1,3-oxazolidin-2-one] was at most 100 nM; that for `COc1nc(Nc2cc(C)cc(-c3cnn(CC4CNC(=O)O4)c3)c2)ncc1Cl` (stereo not shown) [Example 2.28, 5-[(4-{3-[(5-chloro-4-methoxypyrimidin-2-yl)amino]-5-methylphenyl}-1H-pyrazol-1-yl)methyl]-1,3-oxazolidin-2-one] was at most 100 nM. Under `Cc1cc(Nc2nccc(C(C)C)n2)cc(-c2cnn(CC3CNC(=O)O3)c2)c1` (stereo not shown) [Example 2.29, 5-{[4-(3-methyl-5-{[4-(1-methylethyl)pyrimidin-2-yl]amino}phenyl)-1H-pyrazol-1-yl]methyl}-1,3-oxazolidin-2-one] stands at most 100 nM. For `COc1nc(Nc2cc(C)cc(-c3cnn(CC4CNC(=O)O4)c3)c2)ncc1F` (stereo not shown) [Example 2.30, 5-[(4-{3-[(5-fluoro-4-methoxypyrimidin-2-yl)amino]-5-methylphenyl}-1H-pyrazol-1-yl)methyl]-1,3-oxazolidin-2-one], the IC50 is at most 100 nM. The value for `Cc1cc(Nc2nccc(C)n2)cc(-c2cnn(CC3CNC(=O)O3)c2)c1` (stereo not shown) [Example 2.31, 5-[(4-{3-methyl-5-[(4-methylpyrimidin-2-yl)amino]phenyl}-1H-pyrazol-1-yl)methyl]-1,3-oxazolidin-2-one] was at most 100 nM; that for `Cc1cc(Nc2ncc(Cl)c(C)n2)cc(-c2cnn(CC3CNC(=O)O3)c2)c1` (stereo not shown) [Example 2.32, 5-[(4-{3-[(5-chloro-4-methylpyrimidin-2-yl)amino]-5-methylphenyl}-1H-pyrazol-1-yl)methyl]-1,3-oxazolidin-2-one] was at most 100 nM; that for `Cc1cc(Nc2nccc(C3CC3)n2)cc(-c2cnn(CC3CNC(=O)O3)c2)c1` (stereo not shown) [Example 2.33, 5-[(4-{3-[(4-cyclopropylpyrimidin-2-yl)amino]-5-methylphenyl}-1H-pyrazol-1-yl)methyl]-1,3-oxazolidin-2-one] was at most 100 nM. On to `O=C1NCC(Cn2cc(-c3cccc(Nc4nccc(C(F)(F)F)n4)c3)cn2)O1` (stereo not shown) [Example 2.34, 5-{[4-(3-{[4-(trifluoromethyl)pyrimidin-2-yl]amino}phenyl)-1H-pyrazol-1-yl]methyl}-1,3-oxazolidin-2-one], for which the IC50 is at most 100 nM. The value for `Cc1cc(Nc2nccc(C(F)(F)F)n2)cc(-c2cnn3ncccc23)c1` [Example 2.35, N-(3-methyl-5-pyrazolo[1,5-b]pyridazin-3-ylphenyl)-4-(trifluoromethyl)pyrimidin-2-amine] was at most 100 nM; that for `COc1ccc2c(-c3cc(C)cc(Nc4nccc(C(F)(F)F)n4)c3)cnn2n1` [Example 2.36, N-[3-(6-methoxypyrazolo[1,5-b]pyridazin-3-yl)-5-methylphenyl]-4-(trifluoromethyl)pyrimidin-2-amine] was at most 100 nM; that for `Cc1cc(Nc2nccc(C(F)(F)F)n2)cc(-c2cnn3cccnc23)c1` [Example 2.37, N-(3-methyl-5-pyrazolo[1,5-a]pyrimidin-3-ylphenyl)-4-(trifluoromethyl)pyrimidin-2-amine] was 100 to 1000 nM. For `Cc1cc(Nc2nccc(C(F)(F)F)n2)cc(-c2c(C)n[nH]c2C)c1` [Example 2.38, N-[3-(3,5-dimethyl-1H-pyrazol-4-yl)-5-methylphenyl]-4-(trifluoromethyl)pyrimidin-2-amine], the IC50 was in the range of 100 to 1000 nM. Under `Cc1cc(Nc2nccc(C(F)(F)F)n2)cc(-c2c[nH]nc2C)c1` [Example 2.39, N-[3-methyl-5-(3-methyl-1H-pyrazol-4-yl)phenyl]-4-(trifluoromethyl)pyrimidin-2-amine] stands 100 to 1000 nM; under `Cc1cc(Nc2nccc(C3CC3)n2)cc(-c2cnn(CCC(=O)O)c2)c1` [Example 2.40, 3-(4-{3-[(4-cyclopropylpyrimidin-2-yl)amino]-5-methylphenyl}-1H-pyrazol-1-yl)propanoic acid], at most 100 nM. As to `CCOC(=O)CCn1cc(-c2cc(C)cc(Nc3nccc(C4CC4)n3)c2)cn1` [Example 2.41, ethyl 3-(4-{3-[(4-cyclopropylpyrimidin-2-yl)amino]-5-methylphenyl}-1H-pyrazol-1-yl)propanoate], the IC50 is below 1000 nM.

On to `CCOC(=O)CCn1cc(-c2cc(C)cc(Nc3nccc(C)n3)c2)cn1` [Example 2.42, ethyl 3-(4-{3-methyl-5-[(4-methylpyrimidin-2-yl)amino]phenyl}-1H-pyrazol-1-yl)propanoate], for which the IC50 was at most 100 nM.

Take `CCOC(=O)CCn1cc(-c2cc(C)cc(Nc3nccc(C(F)(F)F)n3)c2)cn1` [Example 2.43, ethyl 3-[4-(3-methyl-5-{[4-(trifluoromethyl)pyrimidin-2-yl]amino}phenyl)-1H-pyrazol-1-yl]propanoate]: the IC50 was at most 100 nM. The value for `Cc1cc(Nc2nccc(C)n2)cc(-c2cnn(CCC(=O)O)c2)c1` [Example 2.44, 3-(4-{3-methyl-5-[(4-methylpyrimidin-2-yl)amino]phenyl}-1H-pyrazol-1-yl)propanoic acid] was at most 100 nM. Under `Cc1cc(Nc2nccc(C(F)(F)F)n2)cc(-c2cnn(CC3CNC(=O)O3)c2)c1` (stereo not shown) [Example 2.45, 5-{[4-(3-methyl-5-{[4-(trifluoromethyl)-pyrimidin-2-yl]amino}phenyl)-1H-pyrazol-1-yl]methyl}-1,3-oxazolidin-2-one] stands at most 100 nM; under `Cc1cc(Nc2nccc(C(F)(F)F)n2)cc(-c2ccn(C)n2)c1` [Example 2.46, N-[3-methyl-5-(1-methyl-1H-pyrazol-3-yl)phenyl]-4-(trifluoromethyl)-pyrimidin-2-amine], at most 100 nM; under `Cc1cc(Nc2nccc(C(F)(F)F)n2)cc(-c2n[nH]c3ccccc23)c1` [Example 2.47, N-[3-(1H-indazol-3-yl)-5-methylphenyl]-4-(trifluoromethyl)-pyrimidin-2-amine], 100 to 1000 nM. On to `Cc1cc(Nc2ncccn2)cc(-c2cnn(Cc3ccc(C(N)=O)cc3)c2)c1` [Example 2.57, 4-({4-[3-methyl-5-(pyrimidin-2-ylamino)phenyl]-1H-pyrazol-1-yl}methyl)benzamide], for which the IC50 is at most 100 nM. For the compound `Cc1cc(Nc2ncccn2)cc(-c2cnn(Cc3ccc(O)cc3)c2)c1` [Example 2.58, 4-({4-[3-methyl-5-(pyrimidin-2-ylamino)phenyl]-1H-pyrazol-1-yl}methyl)phenol], the IC50 was at most 100 nM. The value for `Cc1cc(Nc2nccc(C(F)(F)F)n2)cc(-c2cnn(C3CCC(C(=O)O)C(C)(C)C3)c2)c1` (stereo not shown) [Example 2.59, 2,2-dimethyl-4-[4-(3-methyl-5-{[4-(trifluoromethyl)pyrimidin-2-yl]amino}phenyl)-1H-pyrazol-1-yl]cyclohexanecarboxylic acid] was at most 100 nM. Under `Cc1cc(Nc2nccc(C(F)F)n2)cc(-c2cnn(C3CCC(C(=O)O)CC3)c2)c1` (stereo not shown) [Example 2.60, 4-[4-(3-{[4-(difluoromethyl)pyrimidin-2-yl]amino}-5-methylphenyl)-1H-pyrazol-1-yl]cyclohexanecarboxylic acid] stands at most 100 nM; under `Cc1cc(Nc2nccc(C(F)F)n2)cc(-c2cnn([C@H]3CC[C@H](C(=O)O)CC3)c2)c1` [Example 2.61, trans-4-[4-(3-{[4-(difluoromethyl)pyrimidin-2-yl]amino}-5-methylphenyl)-1H-pyrazol-1-yl]cyclohexanecarboxylic acid], at most 100 nM; under `Cc1cc(Nc2nccc(C(F)F)n2)cc(-c2cnn(CC3CNC(=O)O3)c2)c1` (stereo not shown) [Example 2.63, 5-{[4-(3-{[4-(difluoromethyl)pyrimidin-2-yl]amino}-5-methylphenyl)-1H-pyrazol-1-yl]methyl}-1,3-oxazolidin-2-one], at most 100 nM. For the compound `Cc1cc(Nc2nccc(C(F)F)n2)cc(-c2cnn(CC3CNC(=O)O3)c2)c1` (stereo not shown) [Example 2.64, 5-{[4-(3-{[4-(difluoromethyl)pyrimidin-2-yl]amino}-5-methylphenyl)-1H-pyrazol-1-yl]methyl}-1,3-oxazolidin-2-one], the IC50 is at most 100 nM. With `O=C1NCC(Cn2cc(-c3cccc(Nc4nccc(C(F)F)n4)c3)cn2)O1` (stereo not shown) [Example 2.65, 5-{[4-(3-{[4-(difluoromethyl)pyrimidin-2-yl]amino}phenyl)-1H-pyrazol-1-yl]methyl}-1,3-oxazolidin-2-one], the IC50 is at most 100 nM. In the case of `O=C1NCC(Cn2cc(-c3cccc(Nc4nccc(C(F)F)n4)c3)cn2)O1` (stereo not shown) [Example 2.66, 5-{[4-(3-{[4-(difluoromethyl)pyrimidin-2-yl]amino}phenyl)-1H-pyrazol-1-yl]methyl}-1,3-oxazolidin-2-one], the IC50 is at most 100 nM. Under `Cc1cc(Nc2nccc(C(F)F)n2)cc(-c2cnn(C(C)C3CNC(=O)C3)c2)c1` (stereo not shown) [Example 2.67, 4-{1-[4-(3-{[4-(difluoromethyl)pyrimidin-2-yl]amino}-5-methylphenyl)-1H-pyrazol-1-yl]ethyl}pyrrolidin-2-one] stands at most 100 nM. Turning to `Cc1cc(Nc2nccc(C(F)F)n2)cc(-c2cnn(C(C)C3CNC(=O)C3)c2)c1` (stereo not shown) [Example 2.68, 4-{1-[4-(3-{[4-(difluoromethyl)pyrimidin-2-yl]amino}-5-methylphenyl)-1H-pyrazol-1-yl]ethyl}pyrrolidin-2-one], the IC50 is at most 100 nM.
